Test: xn = mol fraction of the nth substance listed
Conditions: Liquid, Pycnometric method

COC(=O)OC [dimethyl carbonate] + O=C=O
Conditions | mass density [kg/m3]
318.15 K, 10270 kPa, x1 = 0.1484 | 912
318.15 K, 10720 kPa, x1 = 0.1484 | 916
318.15 K, 10740 kPa, x1 = 0.0481 | 777
318.15 K, 10750 kPa, x1 = 0.118 | 895
318.15 K, 10820 kPa, x1 = 0.086 | 853
318.15 K, 11190 kPa, x1 = 0.086 | 858
318.15 K, 11230 kPa, x1 = 0.1484 | 920
318.15 K, 11250 kPa, x1 = 0.0481 | 789
318.15 K, 11280 kPa, x1 = 0.118 | 900
318.15 K, 11720 kPa, x1 = 0.1484 | 924
318.15 K, 11740 kPa, x1 = 0.086 | 865
318.15 K, 11770 kPa, x1 = 0.0481 | 800
318.15 K, 11800 kPa, x1 = 0.118 | 905
318.15 K, 12230 kPa, x1 = 0.086 | 871
318.15 K, 12240 kPa, x1 = 0.0481 | 809
318.15 K, 12260 kPa, x1 = 0.1484 | 928
318.15 K, 12280 kPa, x1 = 0.118 | 909
318.15 K, 12690 kPa, x1 = 0.086 | 876
318.15 K, 12720 kPa, x1 = 0.0481 | 818
318.15 K, 12770 kPa, x1 = 0.118 | 913
318.15 K, 12820 kPa, x1 = 0.1484 | 932
318.15 K, 13270 kPa, x1 = 0.086 | 882
318.15 K, 13280 kPa, x1 = 0.0481 | 826
318.15 K, 13290 kPa, x1 = 0.118 | 918
318.15 K, 13410 kPa, x1 = 0.1484 | 936
318.15 K, 13730 kPa, x1 = 0.0481 | 833
318.15 K, 13750 kPa, x1 = 0.118 | 922
318.15 K, 13840 kPa, x1 = 0.086 | 888
318.15 K, 13900 kPa, x1 = 0.1484 | 939
318.15 K, 14240 kPa, x1 = 0.0481 | 841
318.15 K, 14240 kPa, x1 = 0.118 | 925
318.15 K, 14290 kPa, x1 = 0.086 | 893
318.15 K, 14390 kPa, x1 = 0.1484 | 942
318.15 K, 14710 kPa, x1 = 0.0481 | 847
318.15 K, 14720 kPa, x1 = 0.118 | 929
318.15 K, 14830 kPa, x1 = 0.086 | 898
318.15 K, 15140 kPa, x1 = 0.1484 | 947
318.15 K, 15250 kPa, x1 = 0.118 | 933
318.15 K, 15280 kPa, x1 = 0.086 | 902
318.15 K, 15300 kPa, x1 = 0.0481 | 854
318.15 K, 15760 kPa, x1 = 0.086 | 906
318.15 K, 15770 kPa, x1 = 0.1484 | 950
318.15 K, 15820 kPa, x1 = 0.118 | 937
318.15 K, 16250 kPa, x1 = 0.0481 | 865
318.15 K, 16260 kPa, x1 = 0.118 | 940
318.15 K, 16300 kPa, x1 = 0.086 | 910
318.15 K, 16420 kPa, x1 = 0.1484 | 955
323.15 K, 7960 kPa, x1 = 0.1484 | 862
323.15 K, 8290 kPa, x1 = 0.118 | 829
323.15 K, 8310 kPa, x1 = 0.1484 | 866
323.15 K, 8540 kPa, x1 = 0.118 | 833
323.15 K, 8690 kPa, x1 = 0.086 | 762
323.15 K, 8770 kPa, x1 = 0.1484 | 872
323.15 K, 8880 kPa, x1 = 0.086 | 769
323.15 K, 8960 kPa, x1 = 0.118 | 840
323.15 K, 9020 kPa, x1 = 0.0242 | 394
323.15 K, 9080 kPa, x1 = 0.0242 | 401
323.15 K, 9120 kPa, x1 = 0.0242 | 408
323.15 K, 9170 kPa, x1 = 0.0242 | 417
323.15 K, 9180 kPa, x1 = 0.0481 | 607
323.15 K, 9220 kPa, x1 = 0.086 | 779
323.15 K, 9230 kPa, x1 = 0.0242 | 427
323.15 K, 9250 kPa, x1 = 0.1484 | 877
323.15 K, 9260 kPa, x1 = 0.0481 | 617
323.15 K, 9280 kPa, x1 = 0.0242 | 436
323.15 K, 9310 kPa, x1 = 0.118 | 845
323.15 K, 9350 kPa, x1 = 0.0242 | 447
323.15 K, 9410 kPa, x1 = 0.0242 | 458
323.15 K, 9410 kPa, x1 = 0.0481 | 638
323.15 K, 9480 kPa, x1 = 0.0242 | 470
323.15 K, 9550 kPa, x1 = 0.0242 | 482
323.15 K, 9570 kPa, x1 = 0.0481 | 650
